Test results: patent publication US8076061B2, “Method and composition for cancer diagnosis and treatment” (Ascentgene, Inc., priority 2007, dated 2011)

What was measured:
ssDNA = test: Protein array assay (UPA), protein-DNA interaction; format: binding; settings: FIG. 4F
Experimental: (§1) The protein array assay is based on the “Universal Protein Array” method, also called UPA [Ge, H. (2000) UPA, a universal protein array system for quantitative detection of protein-protein, protein-DNA, protein-RNA and protein-ligand interactions. Nucleic Acids Res. 28, e3]. Purified proteins were validated, normalized and arrayed on a nitrocellulose sheet. Each spot was arrayed in 1 mm diameter containing 10-100 ng of protein depending on size. Targeted proteins that interacted with the PC4 proteins on the array were detected by specific antibodies such as antibodies against transcription factor TFIIA, Gal4, or Sp1. For protein-DNA interaction, probe DNA was labeled with ^32P-dCTP and the bound DNA was monitored by autoradiography.

[1] = tested on: PC4-dependent transcription (template pG5HM); test: In vitro transcription assay reconstituted with purified general transcription factors; format: biochemical
Excerpt: FIGS. 3A, 3B and 3C show the functional analyses of PC4 mutations in different assays.
In vitro transcription assay was reconstituted with purified general transcription factors, including TFIIA, TFIIB, TFIID, TFIIF, TFIIH and RNA polymerase II, either purified from HeLa cells or from a recombinant source. This system can be activated in a PC4 and activator-dependent manner. In addition to the transcription factors, the system also contained one activator-responsive template, a basic template (activator-independent), and ^32P-CTP. After incubation at 30° C. for 1 hr, the newly synthesized RNAs were extracted and analyzed on a denatured polyacrylamide gel and visualized by autoradiography.

[2] = tested on: 64 bp dsDNA probe from the adeno major late promoter region; test: Electrophoresis mobility shift assay (EMSA), DNA binding activity of PC4 proteins; settings: purified recombinant PC4 mutant vs wild type, FIG. 3B
Experimental: EMSA was used to determine the ds-DNA binding activity of PC4 protein and was performed in a 20 ul of reaction containing […] of purified PC4 protein and ^32P-labeled 64 bp dsDNA probe from the adeno major late promoter region. After incubated at 4° C. for 1 hr, the reaction mixture was analyzed on an 8% polyacrylamide gel. The mobilized PC4-dsDNA complex was visualized using autoradiography.

[3] = tested on: transcription factor Sp1 (Gal4-Sp1 fusion protein); test: Protein array assay (UPA), interaction with Sp1; format: binding; settings: FIG. 4E
Experimental: as §1

[4] = target: T1, transcription factor TFIIA (Homo sapiens, UniProt P52655+P52657); test: Protein array assay (UPA), interaction with TFIIA; format: binding; settings: FIG. 4C
T1 sequence (P52655 1-376): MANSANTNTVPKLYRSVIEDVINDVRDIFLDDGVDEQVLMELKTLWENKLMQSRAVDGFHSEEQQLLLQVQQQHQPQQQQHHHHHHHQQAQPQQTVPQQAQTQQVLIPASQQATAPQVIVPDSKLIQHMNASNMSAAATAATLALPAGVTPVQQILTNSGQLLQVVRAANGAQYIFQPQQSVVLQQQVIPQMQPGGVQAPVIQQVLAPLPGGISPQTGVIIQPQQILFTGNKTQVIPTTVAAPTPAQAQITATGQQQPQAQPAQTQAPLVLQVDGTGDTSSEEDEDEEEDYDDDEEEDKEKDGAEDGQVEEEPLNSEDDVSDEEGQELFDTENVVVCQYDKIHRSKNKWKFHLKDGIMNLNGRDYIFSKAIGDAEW
T1 sequence (P52657 1-109): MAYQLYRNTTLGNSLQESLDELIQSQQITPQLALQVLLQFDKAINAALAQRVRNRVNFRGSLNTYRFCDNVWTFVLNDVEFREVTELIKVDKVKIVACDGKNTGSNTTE
Experimental: as §1

PC4 = PC4 (Homo sapiens, UniProt P53999); test: Interaction of AH peptide with PC4; format: binding; settings: 15 amino acid peptide

Substance | ssDNA binding activity of PC4 (ssDNA) | PC4 transcription activity ([1]; purified recombinant PC4 mutant vs wild type, FIG. 3C) | PC4's DNA binding activity [2] | interaction of PC4 with Sp1 [3] | interaction of PC4 with TFIIA [4] | transcription activation, PC4-dependent ([1]; AH fused with a Gal4 DNA binding domain) | interaction with PC4 (mimics an activation domain) (PC4)
F77P: recombinant human PC4 protein with single amino acid change F77P | critical for the ssDNA binding activity | abolishes | abolishes | enhances | enhances |  | 
ELQEL′QELQALLQQQ (ELQELQELQALLQQQ; AH15) |  |  |  |  |  | dramatic transcription activation | interacting strongly
